The nature of series [1]: Kinetics of IChU reactions with reference electrophile (dma)2CH+ (stopped-flow photometry). It counts as physicochemical. Conditions: E = −7.02, dichloromethane, 20 °C. The source says:
(§1) In order to systematically investigate the influence of the chalcogen atom on the nucleophilicity of DHPB‐derived IChUs (Ch = O, S, Se, and Te), we utilized Mayr's benzhydrylium methodology.^[ [107] ^]
In accordance with observations in previous studies on ITU reactivity,^[ [119] ^] mixing the strongly colored benzhydrylium tetrafluoroborates 18 with excess IChUs in dichloromethane gave rise to decolorization of the solutions due to the formation of isochalcogenouronium tetrafluoroborates 19, which are colourless (Figure 3a). Owing to reversibility of the C─N bond formation, generated adducts 19 from the IChU/benzhydrylium reactions were not isolated but characterized by ^1H, ^13C, and ^77Se NMR spectroscopy (the ^77Se nucleus is remarkably sensitive with observed changes of around 100 ppm when comparing the ^77Se resonances of free ISeUs with those of the corresponding selenouronium tetrafluoroborates^[ [95] ^]). The kinetics of the IChU reactions with the reference electrophiles 18 were traced by photometric methods using standard stopped‐flow techniques. To establish pseudo first‐order conditions and to secure a sufficient decay of the benzhydrylium's absorbance during the course of the reactions, the IChUs were employed at higher concentrations than the benzhydrylium ions. First‐order rate constants k obs (s^−1) were determined by fitting the mono‐exponential decay function in Equation (2) to the decreasing absorbance (A) of 18 during their reaction with the IChUs as exemplified for the reaction of ITeU3 with (ind)2CH^+ in Figure 3b. (2) A=A0e^−kobst+C […]
First‐order rate constants k obs correlated linearly with the IChU concentration. Therefore, second‐order rate constants k 2 (L mol^−1 s^−1) were determined from the slope of the linear regression curves (Figure 3c ^[ [95] ^]). Second‐order rate constants k 2 for all kinetically investigated reactions of DHPB‐derived IChUs (Ch = O, S, Se, and Te) with benzhydrylium ions 18 are gathered in Table 1.
Apart from CH2Cl2 also MeCN and THF are solvents that are commonly employed in reactions involving isochalcogenoureas. […]

Series [2] is described as follows: Mayr nucleophilicity parameters N and sN (benzhydrylium methodology, Mayr-Patz equation). It counts as physicochemical. Conditions: dichloromethane, 20 °C.
From the text: (1) Mayr-Patz Equation: lgk20^∘C=sN(N+E)
The MPE is a linear‐free‐energy relationship that characterizes electrophiles by the electrophilicity parameter E and nucleophiles by the solvent‐dependent parameters N (nucleophilicity) and s N (sensitivity toward changes in the electrophile reactivity). By using the MPE (Equation (1)), the construction of comprehensive nucleophilicity and electrophilicity scales becomes possible, which facilitate the comparison of various classes of Lewis base organocatalysts.^[ [110], [111], [112], [113], [114], [115], [116], [117], [118], [119], [120] ^]
as §1
Figure 4 illustrates the linear correlations of the second‐order rate constants (lg k 2) with the electrophilicities E of Ar2CH^+ (18), which makes it possible to determine the Mayr nucleophilicity parameters N (and s N) for the DHPB‐derived IChUs IU3, ITU3, ISeU3, and ITeU3. […]
Figure 4 Linear correlations of second‐order rate constants (lg k 2) for the reactions of IU3, ITU3, ISeU3, and ITeU3 with Ar2CH^+ 18 (in dichloromethane at 20 °C) with the electrophilicities E of 18. The slopes of the linear correlations equal the nucleophile‐dependent sensitivity parameter s N. Intercepts on the abscissa reflect the nucleophilicity parameter N (N = –E at lg k 2 = 0).

Series [3] can be described thus: Brønsted basicity pKaH by chemical shift imaging NMR method in DMSO and MeCN. Conditions: for Brønsted basicity pKaH(DMSO): in DMSO; for Brønsted basicity pKaH(MeCN): in MeCN. The procedure:
Recently, Wiskur's group reported potentiometrically determined pK aH values (that is, the pK a of the conjugate acids) of achiral ITUs based on the BTM and DHPB scaffolds in aqueous media.^[ [89], [128] ^] […] In this work, we applied this NMR spectroscopic method to determine the pK aH values of further IChUs in DMSO and MeCN (Supporting Information).
First, a stock solution containing the analyte, two basic indicators and tetramethyl silane was prepared with the respective solvent (DMSO or acetonitrile).
Then 5-10 mg of acid were weighed into a NMR tube and subsequently covered with glass beads.
Figure S50: 5-10 mg of acid in Figure S51: Cover with 1 mm
Afterwards, 550 μL of the stock solution was layered carefully over the glass beads and the acid. The sample is then put in a 28 °C water bath (for DMSO) for 20 - 24h or left on the bench at 22 °C (for acetonitrile) for 1.5 - 2 h and then the NMR measurement was carried out at 20 °C.
Figure S52: Overlay the acid with the Figure S54: Visualized gradient after stock solution of two indicators and the 18h in DMSO (with Bromthymolblue) […]
Figure S53: Development of gradients in temperated water S145 […]
13.4 Indicator and Acid Data
Table S67: Limiting shifts (δH for the fully protonated and δL for the free base), pKas and abbreviations of indicators and acids in acetonitrile.
Table S68: Limiting shifts (δH for the fully protonated and δL for the free base), pKas and abbreviations of indicators

The conditions of series [4]: in methanolic aqueous solution (1:5-mixture); cited from earlier work.

Marks after values point to notes of the source that are not given here.

Regarding `c1ccc2c(c1)OC1=NCCCN12` [IU3, ODHPB], the “Second-order rate constant k2 exptl” value in series [1] was found to be 27900 M⁻¹ s⁻¹. For the same molecule, in series [2], the “Nucleophile-specific sensitivity parameter sN” value came out at 0.69 and the “Nucleophilicity parameter N” value turned out to be 13.31. In series [3], the “Brønsted basicity pKaH(DMSO)” value is recorded as 6.5 and the “Brønsted basicity pKaH(MeCN)” value was 16.9. Also, the “Brønsted basicity pKaH(H2O)” value in series [4] is 8.8 ^c).
As to `c1ccc2c(c1)[Se]C1=NCCCN12` [ISeU3, SeDHPB], the “Second-order rate constant k2 exptl” value in series [1] came to 194000 M⁻¹ s⁻¹. Also, in series [2], the “Nucleophile-specific sensitivity parameter sN” value is reported as 0.66 and the “Nucleophilicity parameter N” value is 15.16. Besides, in series [3], the “Brønsted basicity pKaH(DMSO)” value is 8.3 and the “Brønsted basicity pKaH(MeCN)” value is listed as 17.9. In addition, in series [4], the “Brønsted basicity pKaH(H2O)” value was >11 ^c).

Values taken from article PMC12643354, “From Oxygen to Tellurium: The Impact of the Chalcogen on Nucleophilicities and Basicities of Isochalcogenourea Catalysts” (Angewandte Chemie (International Ed. in English), 2025).
